What was measured:
Assay type in all cases: cell-based
HCT116 cells = assay: Cell viability (MTT, photomicrographs) in HCT116 cells; settings: 16 μM peptide, 24 hours
Method: (§1) After culturing 3×10^3 HCT116 cells in a 96-well plate for 24 hours under conditions of 37° C. and 5% CO2, the cells were either untreated or treated with the peptides of Examples 1 to 28 at a concentration of 16 μM, respectively. Then, the cells were cultured for 24 hours under conditions of 37° C. and 5% CO2, and 10 μl of 3-(4,5-dimethylthiazol-2-yl)-2,5-diphenyltetrazolium bromide reagent was added to each well, followed by reaction for 1 hour. After the reaction was completed, the reagent was removed, 200 μl of dimethyl sulfoxide was added to each well, and the absorbance was measured to confirm cell viability.

U-87MG cells [1] = assay: Cell viability (MTT, photomicrographs) in U-87MG cells; settings: 16 μM peptide, 24 hours
Method: as §1, with “U-87MG” for “HCT116”

U-87MG cells [2] = assay: ADP-ribose level by ELISA in U-87MG cells; settings: 0.2-32 μM peptide, 24 hours
Method: The peptides of Examples 1 to 28 of the present disclosure are designed to inhibit the action of poly ADP-ribose degradation enzyme. In Experimental Example 1, it was confirmed through cell experiments whether poly ADP-ribose was inhibited from being degraded by each of the peptides and accumulated in cancer cells.
5×10^5 U-87MG cells were divided into a group not treated with the peptide of Example and a group treated with 0.2, 1, 2, 4, 8, 16, and 32 μM of the peptide of Example 1 (SEQ ID NO: 1) or Example 8 (SEQ ID NO: 8), and cultured for 24 hours under conditions of 37° C. and 5% CO2 in Eagle's minimum essential medium (EMEM) supplemented with 10% FBS, 100 units/ml penicillin, and 100 μg/ml streptomycin. The medium of the cultured cells was removed, and the samples were treated with RIPA buffer and 1% SDS. The prepared supernatant was used for ELISA analysis to detect and analyze ADP-ribose.

MDA-MB-231 cells = assay: Cell viability (MTT, photomicrographs) in MDA-MB-231 cells; settings: 16 μM peptide, 24 hours
Method: as §1, with “culturing 3×10^3 MDA-MB-231 cells in” for “culturing 3×10^3 HCT116 cells in”, “and 5% C02, the cells” for “and 5% CO2, the cells”

Aspc-1 cells = assay: Cell viability (MTT, photomicrographs) in Aspc-1 cells; settings: 16 μM peptide, 24 hours
Method: as §1, with “Aspc-1” for “HCT116”

Hep G2 cells = assay: Cell viability (MTT, photomicrographs) in Hep G2 cells; settings: 16 μM peptide, 24 hours
Method: 2-4. Change in viability in Hep G2 cells according to treatment with ADP-ribose binding peptide After culturing 3×10^3 Hep G2 cells in a 96-well plate for 24 hours under conditions of 37° C. and 5% CO2, the cells were either untreated or treated with the peptides of Examples 1 to 28 at a concentration of 16 μM, respectively. Then, the cells were cultured for 24 hours under conditions of 37° C. and 5% CO2, and 10 μl of 3-(4,5-dimethylthiazol-2-yl)-2,5-diphenyltetrazolium bromide reagent was added to each well, followed by reaction for 1 hour. After the reaction was completed, the reagent was removed, 200 μl of dimethyl sulfoxide was added to each well, and the absorbance was measured to confirm cell viability.

Caki-1 cells = assay: Cell viability (MTT, photomicrographs) in Caki-1 cells; settings: 16 μM peptide, 24 hours
Method: as §1, with “Caki-1” for “HCT116”

H1975 cells = assay: Cell viability (MTT, photomicrographs) in H1975 cells; settings: 16 μM peptide, 24 hours
Method: as §1, with “H1975” for “HCT116”

GRKKRRQRRRPQGRYDVHLGERMRYAVYWDELASEVRR (ADP-ribose binding peptide with CPP) [Example 27]
cancer cell growth and survival (HCT116 cells): completely killed

VPYIIDLQSMHQFRQDIGTMRPVRR (VPYIIDLQSMHQFRQDTGTMRPVRR; ADP-ribose binding peptide) [Example 1]
cancer cell growth and survival (U-87MG cells [1]): inhibited from growing and killed
amount of increase in ADP-ribose (fold change) compared to the control group (U-87MG cells [2]): significant increase in the amount of ADP-ribose in a concentration-dependent manner

GRKKRRQRRRPQYNYTVNYTTHTQTNKTSSFCRSVRR (ADP-ribose binding peptide with CPP) [Example 22]
cancer cell growth and survival (U-87MG cells [1]): completely killed

GRKKRRQRRRPQFSYVIDENTMGQINRQTQRQRRVRR (GRKKRRQRRRPQFSYVIDFNTMGQINRQTQRQRRVRR; ADP-ribose binding peptide with CPP) [Example 20]
cancer cell growth and survival (HCT116 cells): completely killed

GRKKRRQRRRPQFCYLIYENSMSQMNRQTRRRRRLRR (GRKKRRQRRRPQFCYLIYFNSMSQMNRQTRRRRRLRR; ADP-ribose binding peptide with CPP) [Example 19]
cancer cell growth and survival (MDA-MB-231 cells): completely killed

GRKKRRQRRRPQVPYIIDLQSMHQFRQDIGTMRPVRR (GRKKRRQRRRPQVPYIIDLQSMHQFRQDTGTMRPVRR; ADP-ribose binding peptide with CPP) [Example 15]
cancer cell growth and survival (U-87MG cells [1]): completely killed

GRKKRRQRRRPQWIWYWKNESGTWIQYGEEKDKRKN (ADP-ribose binding peptide with CPP) [Example 24]
cancer cell growth and survival (Aspc-1 cells): completely killed

GRKKRRQRRRPQRVYTIDENSMQQINEDTGTARAIQR (GRKKRRQRRRPQRVYTIDFNSMQQINEDTGTARAIQR; ADP-ribose binding peptide with CPP) [Example 18]
cancer cell growth and survival (Hep G2 cells): completely killed

GRKKRRQRRRPQFSYKIDFAEMKQMNLTTGKQRLIKR (ADP-ribose binding peptide with CPP) [Example 21]
cancer cell growth and survival (Caki-1 cells): completely killed

GRKKRRQRRRPQAPYIIDLQSMNQFRQDTGTLRPVRR (ADP-ribose binding peptide with CPP) [Example 16]
cancer cell growth and survival (H1975 cells): completely killed

GRKKRRQRRRPQAPYIIDLPSWTQFRQDIGTMRAVRR (GRKKRRQRRRPQAPYIIDLPSWTQFRQDTGTMRAVRR; ADP-ribose binding peptide with CPP) [Example 17]
cancer cell growth and survival (Aspc-1 cells): completely killed

GRKKRRQRRRPQRRYTVQFTTMVQVNEETGNRRPVM (ADP-ribose binding peptide with CPP) [Example 23]
cancer cell growth and survival (H1975 cells): completely killed

GRKKRRQRRRPQFLYVADLENMVQYRRNEHGRRRKIKR (ADP-ribose binding peptide with CPP) [Example 25]
cancer cell growth and survival (Hep G2 cells): completely killed

GRKKRRQRRRPQRHYTVNLNTYTATDTKGHSLSVQR (ADP-ribose binding peptide with CPP) [Example 26]
cancer cell growth and survival (MDA-MB-231 cells): completely killed

YNYTVNYTTHTQTNKTSSFCRSVRR (ADP-ribose binding peptide) [Example 8]
cancer cell growth and survival (U-87MG cells [1]): inhibited from growing and killed
amount of increase in ADP-ribose (fold change) compared to the control group (U-87MG cells [2]): significant increase in the amount of ADP-ribose in a concentration-dependent manner

GRKKRRQRRRPQTAYEASVCDYLEQQVARGN (ADP-ribose binding peptide with CPP) [Example 28]
cancer cell growth and survival (Caki-1 cells): completely killed
